In paper PMC11074101 (Cell Discovery, 2024):

Assays:
Assay type in all cases: cell-based
[1] = target: T1, MCHR2 F177(ECL2)A (Homo sapiens, UniProt Q969V1, F177A); experiment: IP-One IP1 accumulation assay, MCHR2 F177A; conditions: n = 3 in triplicate
T1 construct: expressed in transfected cells; host or cells: AD293
Source text: (§1) The gene sequences encoding human MCHR1 (residues 70‒405) and MCHR2 (residues 1‒331, with L256^6.40Y mutation) were subcloned into pFastBac vector (Invitrogen) with an N-terminal haemagglutinin signal peptide (HA) and a thermostabilized BRIL fusion, followed by a C-terminal 15-amino acid linker, a LgBiT subunit and two MBPs to facilitate receptor expression and stability. The Gαi construct was designed with dominant-negative mutations S47N, G203A, A326S, and E245A to decrease the affinity of nucleotide-binding and stable Gαβγ complex. The mini-Gαq construct was designed with the C-terminal α-helix (αH5) of Gαq, which is critical for G protein coupling selectivity. The core of the construct, known as the Ras domain, is derived from Gαs. This design choice was made to enable the binding of the nanobody Nb35, which stabilizes the complex for cryo-EM analysis. […]
(§2) IP1 accumulation assay was applied for the detection of the downstream Gαq signal of MCHR2 using the IP-One HTRF kit (Cisbio). […] Before measurement, the samples were incubated at RT for 30 min and measured with EnVision multi-plate reader (PerkinElmer).
(§3) Concentration–response curves were evaluated with a three-parameter logistic equation. The significance was determined with one-way ANOVA with Tukey’s test, and P < 0.05 vs wild type was considered statistically significant.

[2] = target: T2, MCHR2 D179(ECL2)A (Homo sapiens, UniProt Q969V1, D179A); experiment: IP-One IP1 accumulation assay, MCHR2 D179A; conditions: n = 3 in triplicate
T2 construct: expressed in transfected cells; host or cells: AD293
Source text: as §1, §2, §3

[3] = target: T3, MCHR2 V181(ECL2)A (Homo sapiens, UniProt Q969V1, V181A); experiment: IP-One IP1 accumulation assay, MCHR2 V181A; conditions: n = 3 in triplicate
T3 construct: expressed in transfected cells; host or cells: AD293
Source text: as §1, §2, §3

[4] = target: T4, MCHR2 S183(ECL2)A (Homo sapiens, UniProt Q969V1, S183A); experiment: IP-One IP1 accumulation assay, MCHR2 S183A; conditions: AD293, mean ± S.E.M., n = 3 in triplicate
T4 construct: expressed in transfected cells; host or cells: AD293
Source text: as §1, §2, §3

[5] = target: T5, MCHR2 A185(45.51)F (Homo sapiens, UniProt Q969V1, A185F); experiment: IP-One IP1 accumulation assay, MCHR2 A185F; conditions: n = 3 in triplicate
T5 construct: expressed in transfected cells; host or cells: AD293
Source text: as §1, §2, §3

[6] = target: T6, MCHR2 F186(45.52)A (Homo sapiens, UniProt Q969V1, F186A); experiment: IP-One IP1 accumulation assay, MCHR2 F186A; conditions: AD293, mean ± S.E.M., n = 3 in triplicate
T6 construct: expressed in transfected cells; host or cells: AD293
Source text: as §1, §2, §3

[7] = target: T7, MCHR2 L188(ECL2)A (Homo sapiens, UniProt Q969V1, L188A); experiment: IP-One IP1 accumulation assay, MCHR2 L188A; conditions: AD293, mean ± S.E.M., n = 3 in triplicate
T7 construct: expressed in transfected cells; host or cells: AD293
Source text: as §1, §2, §3

[8] = target: T8, MCHR2 V194(5.35)A (Homo sapiens, UniProt Q969V1, V194A); experiment: IP-One IP1 accumulation assay, MCHR2 V194A; conditions: n = 3 in triplicate
T8 construct: expressed in transfected cells; host or cells: AD293
Source text: as §1, §2, §3

[9] = target: T9, MCHR2 T198(5.39)A (Homo sapiens, UniProt Q969V1, T198A); experiment: IP-One IP1 accumulation assay, MCHR2 T198A; conditions: n = 3 in triplicate
T9 construct: expressed in transfected cells; host or cells: AD293
Source text: as §1, §2, §3

[10] = target: T10, MCHR2 Y267(6.51)A (Homo sapiens, UniProt Q969V1, Y267A); experiment: IP-One IP1 accumulation assay, MCHR2 Y267A; conditions: n = 3 in triplicate
T10 construct: expressed in transfected cells; host or cells: AD293
Source text: as §1, §2, §3

[11] = target: T11, MCHR2 Q271(6.55)A (Homo sapiens, UniProt Q969V1, Q271A); experiment: IP-One IP1 accumulation assay, MCHR2 Q271A; conditions: n = 3 in triplicate
T11 construct: expressed in transfected cells; host or cells: AD293
Source text: as §1, §2, §3

[12] = target: T12, MCHR2 P280(ECL3)A (Homo sapiens, UniProt Q969V1, P280A); experiment: IP-One IP1 accumulation assay, MCHR2 P280A; conditions: n = 3 in triplicate
T12 construct: expressed in transfected cells; host or cells: AD293
Source text: as §1, §2, §3

[13] = target: T13, MCHR2 Y285(7.32)A (Homo sapiens, UniProt Q969V1, Y285A); experiment: IP-One IP1 accumulation assay, MCHR2 Y285A; conditions: AD293, mean ± S.E.M., n = 3 in triplicate
T13 construct: expressed in transfected cells; host or cells: AD293
Source text: as §1, §2, §3

[14] = target: T14, MCHR2 Y288(7.35)A (Homo sapiens, UniProt Q969V1, Y288A); experiment: IP-One IP1 accumulation assay, MCHR2 Y288A; conditions: n = 3 in triplicate
T14 construct: expressed in transfected cells; host or cells: AD293
Source text: as §1, §2, §3

[15] = target: T15, MCHR2 I292(7.39)A (Homo sapiens, UniProt Q969V1, I292A); experiment: IP-One IP1 accumulation assay, MCHR2 I292A; conditions: n = 3 in triplicate
T15 construct: expressed in transfected cells; host or cells: AD293
Source text: as §1, §2, §3

[16] = target: T16, MCHR2 S295(7.42)A (Homo sapiens, UniProt Q969V1, S295A); experiment: IP-One IP1 accumulation assay, MCHR2 S295A; conditions: n = 3 in triplicate
T16 construct: expressed in transfected cells; host or cells: AD293
Source text: as §1, §2, §3

[17] = AD293, IP-One HTRF, 37 °C 1 h, mean ± S.E.M., P < 0.0001 vs WT

T16 sequence (Q969V1 whole entry S295A): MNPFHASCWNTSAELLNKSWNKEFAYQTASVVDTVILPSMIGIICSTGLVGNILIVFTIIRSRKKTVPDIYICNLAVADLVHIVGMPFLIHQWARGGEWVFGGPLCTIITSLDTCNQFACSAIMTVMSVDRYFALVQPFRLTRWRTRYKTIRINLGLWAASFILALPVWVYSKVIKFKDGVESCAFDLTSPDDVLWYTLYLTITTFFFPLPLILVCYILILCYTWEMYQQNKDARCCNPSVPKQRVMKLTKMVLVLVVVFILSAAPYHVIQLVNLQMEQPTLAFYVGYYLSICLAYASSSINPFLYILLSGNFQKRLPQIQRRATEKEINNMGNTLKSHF
T9 sequence (Q969V1 whole entry T198A): as the sequence (Q969V1 whole entry S295A) above, with T198A, A295S counted along it
T14 sequence (Q969V1 whole entry Y288A): as the sequence (Q969V1 whole entry S295A) above, with Y288A, A295S counted along it
T8 sequence (Q969V1 whole entry V194A): as the sequence (Q969V1 whole entry S295A) above, with V194A, A295S counted along it
T10 sequence (Q969V1 whole entry Y267A): as the sequence (Q969V1 whole entry S295A) above, with Y267A, A295S counted along it
T11 sequence (Q969V1 whole entry Q271A): as the sequence (Q969V1 whole entry S295A) above, with Q271A, A295S counted along it
T3 sequence (Q969V1 whole entry V181A): as the sequence (Q969V1 whole entry S295A) above, with V181A, A295S counted along it
T12 sequence (Q969V1 whole entry P280A): as the sequence (Q969V1 whole entry S295A) above, with P280A, A295S counted along it
T5 sequence (Q969V1 whole entry A185F): as the sequence (Q969V1 whole entry S295A) above, with A185F, A295S counted along it
T1 sequence (Q969V1 whole entry F177A): as the sequence (Q969V1 whole entry S295A) above, with F177A, A295S counted along it
T15 sequence (Q969V1 whole entry I292A): as the sequence (Q969V1 whole entry S295A) above, with I292A, A295S counted along it
T2 sequence (Q969V1 whole entry D179A): as the sequence (Q969V1 whole entry S295A) above, with D179A, A295S counted along it
T4 sequence (Q969V1 whole entry S183A): as the sequence (Q969V1 whole entry S295A) above, with S183A, A295S counted along it
T7 sequence (Q969V1 whole entry L188A): as the sequence (Q969V1 whole entry S295A) above, with L188A, A295S counted along it
T6 sequence (Q969V1 whole entry F186A): as the sequence (Q969V1 whole entry S295A) above, with F186A, A295S counted along it
T13 sequence (Q969V1 whole entry Y285A): as the sequence (Q969V1 whole entry S295A) above, with Y285A, A295S counted along it

CSCC[C@@H]1NC(=O)[C@@H](NC(=O)[C@H](CCCNC(=N)N)NC(=O)[C@H](CC(C)C)NC(=O)[C@H](CCSC)NC(=O)[C@H](CC(=O)O)NC(=O)[C@H](Cc2ccccc2)NC(=O)[C@@H](N)CC(=O)O)CSSC[C@@H](C(=O)N[C@@H](Cc2c[nH]c3ccccc23)C(=O)N[C@@H](CCC(N)=O)C(=O)N[C@H](C(=O)O)C(C)C)NC(=O)[C@@H]2CCCN2C(=O)[C@H](CCCNC(=N)N)NC(=O)[C@H](Cc2ccc(O)cc2)NC(=O)[C@H](C(C)C)NC(=O)[C@H](CCCNC(=N)N)NC(=O)CNC(=O)[C@H](CC(C)C)NC1=O [MCH, Melanin-concentrating hormone]
EC50 [1, 17]: 3980 nM
Emax ([1]; AD293, mean ± S.E.M.): 97 ± 2%
EC50 [2, 17]: 1290 nM
Emax ([2]; AD293, mean ± S.E.M.): 85%
EC50 [3, 17]: 53.7 nM
Emax ([3]; AD293, mean ± S.E.M.): 96 ± 1%
Emax [4]: 95 ± 1%
EC50 [5, 17]: 12600 nM
Emax ([5]; AD293, mean ± S.E.M.): 96 ± 1%
Emax [6]: 98%
Emax [7]: 101 ± 1%
EC50 [8, 17]: 33.1 nM
Emax ([8]; AD293, mean ± S.E.M.): 98 ± 1%
EC50 [9, 17]: 69.2 nM
Emax ([9]; AD293, mean ± S.E.M.): 93 ± 2%
EC50 [10, 17]: 200 nM
Emax ([10]; AD293, mean ± S.E.M.): 92 ± 1%
EC50 [11, 17]: 27.5 nM
Emax ([11]; AD293, mean ± S.E.M.): 101 ± 1%
EC50 [12, 17]: 182 nM
Emax ([12]; AD293, mean ± S.E.M.): 90 ± 2%
Emax [13]: 92 ± 2%
EC50 [14, 17]: 1230 nM
Emax ([14]; AD293, mean ± S.E.M.): 84 ± 2%
EC50 [15, 17]: 129 nM
Emax ([15]; AD293, mean ± S.E.M.): 92 ± 2%
EC50 [16, 17]: 234 nM
Emax ([16]; AD293, mean ± S.E.M.): 81 ± 2%
